This assay has as its target T1, human Kv 1.5 channel (hKv 1.5) (Homo sapiens, UniProt P22460).
T1 construct: expressed in transfected cells
The assay is described as follows: Ultrarapid potassium current (IKur), whole-cell patch-clamp in HEK 293-hKv 1.5 cells. Type of assay: cell-based. The source says: The cardiac action potential is the basic electrical unit of excitable cardiac cells and represents the activity of several types of ion channels responsible for the various phases of the action potential. Different types of action potentials correspond to different cardiac regions, thus allowing sequential and coordinated activity in these regions. For this reason, Kv 1.5 potassium channels, coded by the KCNA5 gene, are expressed only in auricle tissue and are responsible for the ultrarapid potassium current (IKur) which acts in the repolarization of the auricular action potential. This highly localized expression of Kv 1.5 is in fact a target of choice in the treatment of auricular fibrillation, a pathology in which changes in auricular action potentials are observed.
Thus, the effects of DHA and EPA on IKur were studied. For this purpose, the human isoform of the Kv 1.5 channel (hKv 1.5) was transfected in a stable manner in HEK 293 (human embryonic kidney) cells and the current resulting from the activity of these channels was studied using a whole-cell patch-clamp technique.
HEK 293-hKv 1.5 cells are grown under standard conditions (37° C., incubator at […] and 5% CO2) in Falcon dishes up to 80% confluence. They are then removed and cultured in 35 mm petri dishes containing the following culture medium: DMEM (Invitrogen); 10% fetal bovine serum (Invitrogen); a mixture of 100 U/ml penicillin, 100 μg/ml streptomycin and 0.25 mg/ml glutamine (Invitrogen); and 1.25 mg/ml of Geneticin® as a selective antibiotic.
IKur is studied using the whole-cell patch-clamp technique at ambient temperature (19-22° C.). The pipette medium contains: 125 mM K-aspartate, 20 mM KCl, 10 mM EGTA, 5 mM HEPES, 5 mM Mg-ATP, 1 mM MgCl2, pH 7.3 (KOH). The extracellular medium contains: 140 mM NaCl, 20 mM HEPES, 5 mM D(+)-glucose, 5 mM KCl, 2 mM CaCl2, 1 mM MgCl2, pH 7.4 (NaOH).
IKur is induced every 15 seconds by 300 ms, +60 mV depolarizing pulses from a −80 mV holding potential, followed by −50 mV repolarization. The amplitude of the current peak is established from the maximum current obtained during the first 100 ms of the depolarizing pulse. The amplitude of the current at the end of the pulse is determined during the last 20 ms of the depolarizing pulse.
DHA and EPA are supplied by Sigma. Stock solutions (10 mM) are prepared in ethanol and the final concentration of solvent is 0.25%.
(The patch-clamp technique gives a direct electrical read-out from membranes.)

Structures are written as SMILES. Read-outs that look alike come from different tables or passages of the source.

T1 sequence (P22460 whole entry): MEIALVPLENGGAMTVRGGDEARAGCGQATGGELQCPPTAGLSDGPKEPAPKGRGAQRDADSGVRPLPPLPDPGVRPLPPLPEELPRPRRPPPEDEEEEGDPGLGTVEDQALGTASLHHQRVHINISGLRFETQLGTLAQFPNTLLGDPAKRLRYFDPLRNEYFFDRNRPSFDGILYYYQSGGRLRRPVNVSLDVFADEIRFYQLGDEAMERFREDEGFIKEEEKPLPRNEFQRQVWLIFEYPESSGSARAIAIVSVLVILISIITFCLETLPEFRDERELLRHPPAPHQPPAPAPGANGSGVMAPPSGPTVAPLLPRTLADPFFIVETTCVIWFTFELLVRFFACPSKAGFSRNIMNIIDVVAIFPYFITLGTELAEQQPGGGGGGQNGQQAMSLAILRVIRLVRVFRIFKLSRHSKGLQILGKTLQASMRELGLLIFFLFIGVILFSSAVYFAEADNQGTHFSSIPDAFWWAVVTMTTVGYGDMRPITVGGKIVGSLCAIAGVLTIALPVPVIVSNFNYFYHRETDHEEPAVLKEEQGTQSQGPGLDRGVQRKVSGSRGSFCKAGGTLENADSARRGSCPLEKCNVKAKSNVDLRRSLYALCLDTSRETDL

With `CC/C=C\C/C=C\C/C=C\C/C=C\C/C=C\CCCC(=O)O` [EPA], the “Percent inhibition of Peak IKur, Mean” value (1 μM, HEK 293-hKv 1.5, +60 mV pulse, max current in first 100 ms) is 14.6%; the “Percent inhibition of Peak IKur, Mean” value (3.2 μM, HEK 293-hKv 1.5, +60 mV pulse, max current in first 100 ms) was 16.1%; the “Percent inhibition of Peak IKur, Mean” value (10 μM, HEK 293-hKv 1.5, +60 mV pulse, max current in first 100 ms) was 17.5±6.4%; the “Percent inhibition of Peak IKur, Mean” value (25 μM, HEK 293-hKv 1.5, +60 mV pulse, max current in first 100 ms) came out at 5.4%. The “Percent inhibition of End of pulse IKur, Mean” value (1 μM, HEK 293-hKv 1.5, last 20 ms of 300 ms depolarizing pulse) is 14.9%; the “Percent inhibition of End of pulse IKur, Mean” value (3.2 μM, HEK 293-hKv 1.5, last 20 ms of 300 ms depolarizing pulse) is on record as 19.9%; the “Percent inhibition of End of pulse IKur, Mean” value (10 μM, HEK 293-hKv 1.5, last 20 ms of 300 ms depolarizing pulse) stood at 36.6%; the “Percent inhibition of End of pulse IKur, Mean” value (25 μM, HEK 293-hKv 1.5, last 20 ms of 300 ms depolarizing pulse) is recorded as 61.6±7.3%.
Usually inhibition stands for the relative decrease from the control value, in per cent. As to `CC/C=C\C/C=C\C/C=C\C/C=C\C/C=C\C/C=C\CCC(=O)O` [DHA, docosahexaenoic acid], the inhibition at 1 µM (1 μM, HEK 293-hKv 1.5, +60 mV pulse, max current in first 100 ms, read-out: Percent inhibition of Peak IKur, Mean) was determined as 8.2% and the inhibition at 1 µM (1 μM, HEK 293-hKv 1.5, last 20 ms of 300 ms depolarizing pulse, read-out: Percent inhibition of End of pulse IKur, Mean) worked out at 10.1%. Further, the inhibition at 3.2 µM reads like this: (3.2 μM, HEK 293-hKv 1.5, +60 mV pulse, max current in first 100 ms, read-out: Percent inhibition of Peak IKur, Mean) 10.9%; (3.2 μM, HEK 293-hKv 1.5, last 20 ms of 300 ms depolarizing pulse, read-out: Percent inhibition of End of pulse IKur, Mean) 14.5%. For the same compound, the inhibition at 5.6 µM reads like this: (HEK 293-hKv 1.5, +60 mV pulse, max current in first 100 ms, read-out: Percent inhibition of Peak IKur, Mean) 15.4%; (HEK 293-hKv 1.5, last 20 ms of 300 ms depolarizing pulse, read-out: Percent inhibition of End of pulse IKur, Mean) 33.7%. The inhibition at 10 µM by setting is: (10 μM, HEK 293-hKv 1.5, +60 mV pulse, max current in first 100 ms, read-out: Percent inhibition of Peak IKur, Mean) 22.6%; (10 μM, HEK 293-hKv 1.5, last 20 ms of 300 ms depolarizing pulse, read-out: Percent inhibition of End of pulse IKur, Mean) 78%. In addition, the inhibition at 25 µM was 58.1 ± 13.6% (25 μM, HEK 293-hKv 1.5, +60 mV pulse, max current in first 100 ms, read-out: Percent inhibition of Peak IKur, Mean) and 86.5 ± 3.4% (25 μM, HEK 293-hKv 1.5, last 20 ms of 300 ms depolarizing pulse, read-out: Percent inhibition of End of pulse IKur, Mean).

The values are drawn from patent US8034377B2, “DHA esters and use thereof in treatment and prevention of cardiovascular disease” (Pierre Fabre Medicament, priority 2006, dated 2011).
